Laboratory results: publication PMC2741501 (Molecular cell, 2009)
Where two headings read alike, the source gives them in different places.

Assays:
[1] = test system: CviR binding to the vioA promoter; parameters: species or system Chromobacterium violaceum; details: for DNA binding of purified CviR loaded with the molecule: vioA promoter probe, CviR 100-500 nM
CviR [2] = biological target: T1, CviR (Chromobacterium violaceum, UniProt D3W065); type: cell-based; details: read-out: IC50, inhibition of CviR-dependent vioA-gfp expression; constant 500 nM C6-HSL
CviR [3] = details: molecule added at 50 μM, E. coli
V. harveyi LuxN = V. harveyi LuxN (Vibrio campbellii, UniProt A7MRY4); type: cell-based; details: read-out: IC50, inhibition of bioluminescence
CviR [4] = biological target: T1, CviR; details: for maximal gfp expression level compared with C6-HSL / EC50: E. coli vioA-gfp; for EC50: read-out: EC50, CviR activation of gfp expression; for induction of gfp expression through CviR: even at 100 μM
[5] = test system: C. violaceum killing of C. elegans; assay: C. elegans lifespan assay on C. violaceum lawns; type: in vivo, Caenorhabditis elegans
[6] = V. harveyi BB960 (luxPQ mutant)

Sequence of V. harveyi LuxN (A7MRY4 whole entry): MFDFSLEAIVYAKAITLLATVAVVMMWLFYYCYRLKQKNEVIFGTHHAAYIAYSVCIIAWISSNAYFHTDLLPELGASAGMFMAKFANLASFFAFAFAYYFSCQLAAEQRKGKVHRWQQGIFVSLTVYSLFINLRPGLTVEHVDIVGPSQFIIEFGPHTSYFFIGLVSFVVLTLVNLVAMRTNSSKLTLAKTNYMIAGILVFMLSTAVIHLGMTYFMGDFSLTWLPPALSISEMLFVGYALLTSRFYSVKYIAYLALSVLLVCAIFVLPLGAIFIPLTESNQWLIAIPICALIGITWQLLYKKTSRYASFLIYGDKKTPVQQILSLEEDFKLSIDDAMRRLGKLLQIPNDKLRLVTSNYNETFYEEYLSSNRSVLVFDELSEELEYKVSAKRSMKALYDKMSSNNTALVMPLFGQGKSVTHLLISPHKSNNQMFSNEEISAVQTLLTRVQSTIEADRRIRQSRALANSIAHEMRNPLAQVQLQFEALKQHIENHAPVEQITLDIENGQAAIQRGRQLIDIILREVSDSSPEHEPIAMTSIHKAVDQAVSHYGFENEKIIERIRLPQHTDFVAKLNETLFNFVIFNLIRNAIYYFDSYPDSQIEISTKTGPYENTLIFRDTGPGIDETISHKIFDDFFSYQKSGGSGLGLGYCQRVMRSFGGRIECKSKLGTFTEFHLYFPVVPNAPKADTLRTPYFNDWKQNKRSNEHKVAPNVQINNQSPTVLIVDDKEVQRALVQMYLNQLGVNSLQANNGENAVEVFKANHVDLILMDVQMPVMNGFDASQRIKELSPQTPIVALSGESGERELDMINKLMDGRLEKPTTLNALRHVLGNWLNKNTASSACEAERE
T1 sequence (D3W065 1-265): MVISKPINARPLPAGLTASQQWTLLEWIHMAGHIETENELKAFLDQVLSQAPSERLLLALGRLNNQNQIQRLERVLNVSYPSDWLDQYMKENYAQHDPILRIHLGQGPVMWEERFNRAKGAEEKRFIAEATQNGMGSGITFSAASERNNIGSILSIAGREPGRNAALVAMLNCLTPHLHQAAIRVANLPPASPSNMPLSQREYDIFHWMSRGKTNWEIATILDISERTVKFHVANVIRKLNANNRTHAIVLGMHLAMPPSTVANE

Compound	DNA binding of purified CviR loaded with the molecule [1]	IC50 (CviR [2]) [nM]	EC50 (CviR [4]) [nM]	induction of gfp expression through CviR (CviR [4])	further results
Chloro-thiolactone [CTL]	no ability to bind DNA	1100	–	–	CviR folding and solubility when expressed in presence of molecule (CviR [3]): promoted CviR folding and solubility; IC50 (V. harveyi LuxN; [6]): 28000 nM; IC50 (V. harveyi LuxN; wild type V. harveyi BB120): 150000 nM
CCCC(=O)N[C@H]1CCOC1=O [C4-HSL]	–	–	12000	–	maximal gfp expression level compared with C6-HSL (CviR [4]): can induce maximal gfp expression
CCCCCC(=O)N[C@H]1CCOC1=O [C6-HSL]	binds DNA with high affinity	–	75	–	DNA probe shift of CL loaded CviR on addition of C6-HSL ([1]; 500 nM CviR, 1 μM C6-HSL): modest shift of the DNA probe; C. elegans median lifespan ([5]; C. violaceum cviI mutant, C6-HSL 2 μM): 4 days
CCCCCCCCCCCC(=O)N[C@H]1CCOC1=O [C12-HSL]	no ability to bind DNA	494	–	do not induce gfp expression	–
CCCCCCCC(=O)N[C@H]1CCOC1=O [C8-HSL]	bound DNA with similar affinity to CviR loaded with C6-HSL	–	30	–	maximal gfp expression level compared with C6-HSL (CviR [4]): only half of the maximal gfp expression
CCCCCCCCCCCCCC(=O)N[C@H]1CCOC1=O [C14-HSL]	no ability to bind DNA	268	–	do not induce gfp expression	–
Chlorolactone [CL]	no ability to bind DNA	377	–	–	DNA binding of C6-HSL loaded CviR on addition of antagonist ([1]; 500 nM CviR, antagonist 0-10 μM): DNA binding decreased in a dose dependent manner; CviR folding and solubility when expressed in presence of molecule (CviR [3]): promoted CviR folding and solubility; IC50 (V. harveyi LuxN; [6]): 14000 nM; IC50 (V. harveyi LuxN; V. harveyi JMH624 + 20 nM AHL): 873 nM; IC50 (V. harveyi LuxN; wild type V. harveyi BB120): 40000 nM; C. elegans median lifespan ([5]; wild type C. violaceum, CL 20 μM, two days without antagonist): seven
CCCCCCCCCC(=O)N[C@H]1CCOC1=O [C10-HSL]	does not abolish DNA binding	208	–	do not induce gfp expression	–
